Reference: ChEMBL document CHEMBL1201862, “PubChem BioAssay data set” (2004)
Several values for one entry are separate records, joined by “and”; a condition that tells them apart may be missing. Equal entries are not always repeated. Activity calls are given as the source filed them.

Columns and labels:
[1] = viability loss in CEM21 cells – cell-based, plate reader, dry powder, cytotoxicity control, dose response (AID 687026); type: functional
Paired box protein Pax-8 = Paired box protein Pax-8 (Homo sapiens, UniProt Q06710); experiment: PAX8 transcriptional activity inhibition in RMG-I – RMG-I cells, luciferase, cherry-pick, dose response (AID 687027); type: functional, cell-based;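 also: luciferase reporter driven by Pax8 target thyroperoxidase promoter measured by SteadyGlo luminescence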
[2] = A2780 cell killing – plate reader, dry powder samples, cytotoxicity control, dose response (AID 743046); type: functional, cell-based
[3] = viability loss in A549 lung cells – cell-based, 24 h, CellTiter-Glo luminescence, cherry-picks, cytotoxicity control, dose response (AID 1053115); type: functional; conditions: A549, 24 h
[4] = OVCAR-3 cell viability loss – plate reader, dry powder samples, PAX8 inhibitor project, dose response (AID 743044); type: functional, cell-based
[5] = OVCAR8 cell viability loss – plate reader, dry powder samples, PAX8 project, dose response (AID 743197); type: functional, cell-based; conditions: OVCAR-8
Large T antigen = Large T antigen (Simian virus 40, UniProt P03070); type: functional, Betapolyomavirus macacae;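 also: Confirmatory-stage PubChem screen for compounds that inhibit SV40 T antigen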
Protein Tat = molecular target: T1, Protein Tat (Human immunodeficiency virus type 1 group M subtype B (isolate HXB2)(HIV-1), UniProt P04608); type: functional;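 also: tat binding to TAR RNA read out by fluorescence polarization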
T1 sequence (P04608 whole entry): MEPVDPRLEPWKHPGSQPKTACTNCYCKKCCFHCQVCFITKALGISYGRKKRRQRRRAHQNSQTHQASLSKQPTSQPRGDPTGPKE

[6] = molecular target: Glutathione-S-transferase (Schistosoma japonicum, UniProt Q26513); experiment: GST-antibody interaction or FRET quenching – biochemical, TR-FRET, artefact control for Vif-APOBEC3G degradation inhibitor project, dose response (AID 1117362); type: functional
[7] = inhibitors of TRPM1-promoter reporter in SK-MEL-5 – cell-based, luciferase, dry powder, set 9, MITF inhibitor project, dose response (AID 651588); type: functional
[8] = MITF Orthogonal Assay: MALME3 CTG Assay Measured in Cell-Based System Using Plate Reader - 2084-04_Inhibitor_Dose_DryPowder_Activity_Set6.; type: functional; conditions: MALME-3
[9] = growth inhibition of SK-MEL-5 melanoma cells – cell-based, CellTiter-Glo luminescence, dry powder, set 8, orthogonal assay for MITF inhibitor project, dose response (AID 651586); type: functional
[10] = growth inhibition of MALME3 cells – cell-based, CellTiter-Glo luminescence, dry powder, set 5, orthogonal assay for MITF inhibitor project, dose response (AID 651584); type: functional; conditions: MALME-3
[11] = MITF Orthogonal Assay: SK-MEL-5 CTG Assay Measured in Cell-Based System Using Plate Reader - 2084-02_Inhibitor_Dose_DryPowder_Activity_Set7.; type: functional
[12] = MITF: Counter assay: A375 proliferation Measured in Cell-Based System Using Plate Reader - 2084-03_Inhibitor_Dose_DryPowder_Activity_Set8.; type: functional; conditions: A-375
[13] = cytotoxicity in MITF-independent A375 cells – cell-based, CellTiter-Glo luminescence, dry powder, set 9, counter-screen for MITF modulator project, dose response (AID 651591); type: functional; conditions: A-375
[14] = inhibitors of TRPM1-promoter reporter in SK-MEL-5 – cell-based, luciferase, dry powder, set 8, MITF inhibitor project, dose response (AID 624430); type: functional
[15] = CellTiter-Glo luminescence survival assay, SW480 colon tumor line, concentration-response curve, half-maximal inhibitory concentration (AID 1117338); type: functional
[16] = RKO cell viability reduction, dose response, CellTiter-Glo luminescence (AID 1117322); type: functional
[17] = cytotoxicity toward HCT116 cells – cell-based, CellTiter-Glo luminescence, IC50, dose response (AID 1117332); type: functional; conditions: HCT-116
[18] = SNU-C1 cell viability reduction, dose response, CellTiter-Glo luminescence (AID 1117323); type: functional, cell-based
[19] = cytotoxicity toward Colo320 cells – cell-based, CellTiter-Glo luminescence, IC50, dose response (AID 1117334); type: functional; conditions: COLO 320
[20] = cytotoxicity toward HT-29 cells – cell-based, CellTiter-Glo luminescence, IC50, dose response (AID 1117330); type: functional
[21] = Reduced DLD-1 viability, concentration-response, CellTiter-Glo luminescence (AID 1117352); type: functional
[22] = HCT116 cell viability decrease, GSK3B pretreatment – CellTiter-Glo, IC50, dose response (AID 1117339); type: functional; conditions: HCT-116
Nonstructural protein 1 = Nonstructural protein 1 (Influenza A virus, UniProt Q194T2); type: functional, Influenza A virus (A/California/07/2009(H1N1))
[23] = molecular target: T2, Microphthalmia-associated transcription factor (Homo sapiens, UniProt O75030); experiment: reducers of TRPM1 reporter luminescence, concentration series – cell-based, SK-MEL-5, cherry-picked, set 3, MITF inhibitor project, dose response (AID 493073); type: functional;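 also: SK-MEL-5 melanoma cells with luciferase driven by the MITF target TRPM1 promoter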
T2 sequence (O75030 whole entry): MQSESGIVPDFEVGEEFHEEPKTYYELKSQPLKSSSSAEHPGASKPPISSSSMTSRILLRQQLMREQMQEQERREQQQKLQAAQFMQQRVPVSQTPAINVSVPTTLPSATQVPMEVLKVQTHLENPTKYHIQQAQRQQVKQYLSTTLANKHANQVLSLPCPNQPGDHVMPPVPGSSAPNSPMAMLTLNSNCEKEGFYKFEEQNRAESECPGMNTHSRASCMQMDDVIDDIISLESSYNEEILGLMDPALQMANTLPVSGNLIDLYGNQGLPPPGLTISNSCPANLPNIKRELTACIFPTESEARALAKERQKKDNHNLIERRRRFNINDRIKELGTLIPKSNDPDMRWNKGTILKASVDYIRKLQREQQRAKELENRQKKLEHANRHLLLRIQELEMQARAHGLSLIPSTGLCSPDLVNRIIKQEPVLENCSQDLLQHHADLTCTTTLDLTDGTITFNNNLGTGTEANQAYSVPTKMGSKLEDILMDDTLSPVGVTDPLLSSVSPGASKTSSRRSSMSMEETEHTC

INS1 = experiment: INS-1E survival protection against cytokine death – cell-based, luminescence, retest, dose response (AID 449756); type: functional; conditions: Rattus norvegicus;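 also: cell death triggered by IL-1 beta plus TNF-alpha plus IFN-gamma mixture; protective hits raise ATP signal compared with cytokine alone wells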
[24] = cytotoxicity in MITF-independent A375 cells – cell-based, CellTiter-Glo luminescence, dry powder, set 4, counter-screen for MITF inhibitor project, dose response (AID 624364); type: functional; conditions: A-375;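 also: A375 melanoma cells are MITF independent so this is a counter screen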
[25] = viability loss in MITF-independent A375 cells – cell-based, CellTiter-Glo luminescence, dry powder, set 7, counter-screen for MITF inhibitor project, dose response (AID 624490); type: functional; conditions: A-375
[26] = cytotoxicity in melanoma parental cells – cell-based, CellTiter-Glo, dry powder, set 6, MITF inhibitor project, dose response (AID 624429); type: functional; conditions: SK-MEL-5
[27] = MITF Orthogonal Assay: SK-MEL-5 CTG Assay Measured in Cell-Based System Using Plate Reader - 2084-02_Inhibitor_Dose_DryPowder_Activity_Set5.; type: functional
[28] = viability loss in MITF-independent A375 cells – cell-based, CellTiter-Glo luminescence, dry powder, set 6, counter-screen for MITF inhibitor project, dose response (AID 624488); type: functional; conditions: A-375
[29] = MITF Measured in Cell-Based System Using Plate Reader - 2084-01_Inhibitor_Dose_DryPowder_Activity_Set6.; type: functional
[30] = MITF Measured in Cell-Based System Using Plate Reader - 2084-01_Inhibitor_Dose_DryPowder_Activity_Set7.; type: functional
[31] = melanocyte viability loss, MITF-dependent cells, cell-based, plate reader, dry powder, cytotoxicity control, dose response (AID 651920); type: functional
[32] = inhibitors of non-replicating M. tuberculosis, dose response, luciferase, dry powder (AID 651619); type: functional; conditions: Mycobacterium tuberculosis
[33] = inhibitors of non-replicating M. tuberculosis, dose response, luciferase, dry powder (AID 651620); type: functional; conditions: Mycobacterium tuberculosis
[34] = growth inhibition of replicating M. tuberculosis, dose response, counter-screen, dry powder, IC90 (AID 651617); type: functional; conditions: Mycobacterium tuberculosis

Chain of Large T antigen (P03070 whole entry): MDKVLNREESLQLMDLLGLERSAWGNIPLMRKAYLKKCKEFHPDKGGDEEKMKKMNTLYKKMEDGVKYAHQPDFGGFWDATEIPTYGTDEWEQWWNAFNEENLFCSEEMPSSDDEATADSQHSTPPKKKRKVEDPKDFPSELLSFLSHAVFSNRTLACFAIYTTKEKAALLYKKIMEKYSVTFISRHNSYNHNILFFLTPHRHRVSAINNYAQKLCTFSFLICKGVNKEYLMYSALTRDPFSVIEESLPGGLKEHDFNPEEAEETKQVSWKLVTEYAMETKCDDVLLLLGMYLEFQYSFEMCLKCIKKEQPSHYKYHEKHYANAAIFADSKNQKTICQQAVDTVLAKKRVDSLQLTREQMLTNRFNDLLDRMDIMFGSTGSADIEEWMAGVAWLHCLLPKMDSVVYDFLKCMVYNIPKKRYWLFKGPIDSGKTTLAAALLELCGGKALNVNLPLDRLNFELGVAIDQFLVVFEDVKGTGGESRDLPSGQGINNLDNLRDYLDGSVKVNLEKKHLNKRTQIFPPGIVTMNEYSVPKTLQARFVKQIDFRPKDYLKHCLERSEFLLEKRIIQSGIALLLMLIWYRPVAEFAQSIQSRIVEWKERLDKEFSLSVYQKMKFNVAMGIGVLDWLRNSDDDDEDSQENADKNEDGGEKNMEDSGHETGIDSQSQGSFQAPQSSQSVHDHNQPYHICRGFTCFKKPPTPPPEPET
Chain of Nonstructural protein 1 (Q194T2 whole entry): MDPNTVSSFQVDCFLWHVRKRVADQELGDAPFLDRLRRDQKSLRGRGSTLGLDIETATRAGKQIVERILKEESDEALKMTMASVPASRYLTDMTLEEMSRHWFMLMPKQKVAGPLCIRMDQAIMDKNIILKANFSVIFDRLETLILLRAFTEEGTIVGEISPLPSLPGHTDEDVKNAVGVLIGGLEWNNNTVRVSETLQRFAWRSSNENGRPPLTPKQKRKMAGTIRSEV
Chain of Paired box protein Pax-8 (Q06710 whole entry): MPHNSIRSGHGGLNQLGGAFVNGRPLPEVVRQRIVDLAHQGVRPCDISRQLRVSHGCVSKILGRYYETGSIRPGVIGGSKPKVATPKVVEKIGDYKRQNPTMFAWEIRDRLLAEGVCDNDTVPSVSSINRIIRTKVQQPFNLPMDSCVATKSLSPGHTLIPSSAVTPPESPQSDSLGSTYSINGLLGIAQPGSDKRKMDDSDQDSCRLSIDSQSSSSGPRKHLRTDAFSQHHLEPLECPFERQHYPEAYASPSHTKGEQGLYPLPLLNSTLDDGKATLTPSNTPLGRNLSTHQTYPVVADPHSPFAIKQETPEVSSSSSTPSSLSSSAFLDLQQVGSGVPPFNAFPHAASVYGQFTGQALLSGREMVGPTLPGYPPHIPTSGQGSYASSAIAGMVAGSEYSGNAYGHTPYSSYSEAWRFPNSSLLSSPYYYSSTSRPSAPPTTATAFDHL
Chain of Glutathione-S-transferase (Q26513 whole entry): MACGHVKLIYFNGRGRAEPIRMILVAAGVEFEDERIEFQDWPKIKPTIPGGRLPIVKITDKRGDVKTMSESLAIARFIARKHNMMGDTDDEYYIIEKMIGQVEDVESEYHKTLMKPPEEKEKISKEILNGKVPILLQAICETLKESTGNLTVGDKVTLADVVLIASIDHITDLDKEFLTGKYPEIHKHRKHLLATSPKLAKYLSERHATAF

Question: With Nc1nonc1C(=O)NCCNCc1c(OCc2ccccc2F)ccc2ccccc12 as the molecule, how does the AC50 [1] read?
Answer: > 70 µM (inactive) and 60.8 µM (active)

Question: With COc1ccccc1-c1ccc2c(c1)[C@H]1[C@H](CCN1C(=O)C1CCCCC1)[C@@H](CO)N2 as the molecule, how does the AC50 (Paired box protein Pax-8) read?
Answer: 9.8 µM (active)

Question: What about the AC50 [2] of the same molecule?
Answer: 5.38 µM (active)

Question: What about the AC50 [3] of the same molecule?
Answer: 42.1 µM (active)

Question: And the AC50 [4]?
Answer: 18.7 µM (active)

Question: And the AC50 [5]?
Answer: 30.4 µM (active)

Question: What does the source list for CC(=O)N1CCN(c2ccc(NCc3ccc(C)s3)cc2)CC1?
Answer: IC50 (Large T antigen): 3.48 µM (active); IC50 (Protein Tat): > 100 µM (active); IC50 [6]: 29.7 µM (active)

Question: Which AC50 [7] does the source give for CCN1CCN(C2=C(Nc3ccc(F)cc3F)C(=O)c3ccccc3C2=O)CC1 here?
Answer: 12.3 µM (active)

Question: And the AC50 [8]?
Answer: 26.3 µM (active)

Question: What about the AC50 [9] of the same molecule?
Answer: > 70 µM (inactive)

Question: What about the AC50 [10] of the same molecule?
Answer: 26.3 µM (active)

Question: What about the AC50 [11] of the same molecule?
Answer: 8.99 µM (active)

Question: And the AC50 [12]?
Answer: > 70 µM (inactive)

Question: What about the AC50 [13] of the same molecule?
Answer: > 70 µM (inactive)

Question: And the AC50 [14]?
Answer: 2.41 µM (active)

Question: What does the source list for Cc1nnc(NS(=O)(=O)c2ccc(N)cc2)s1 [SULFAMETHIZOLE]?
Answer: IC50 [15]: > 20 µM (inactive); IC50 [16]: > 20 µM (inactive); IC50 [17]: > 20 µM (inactive); IC50 [18]: > 20 µM (inactive); IC50 [19]: > 20 µM (inactive); IC50 [20]: > 20 µM (inactive); IC50 [21]: > 20 µM (inactive); IC50 [22]: > 20 µM (inactive)

Question: Which results are given for COC1=C(Nc2ccccc2)C(=O)c2ccccc2C1=O?
Answer: IC50 (Nonstructural protein 1): 12 µM (active); AC50 [23]: 4.53 µM (active); AC50 (INS1): 5.64 µM (active); AC50 [7]: 13.9 µM (active); AC50 [24]: > 70 µM (inactive); AC50 [25]: 41.5 µM (active); AC50 [8]: 12.5 µM (active); AC50 [9]: 6.45 µM (active); AC50 [10]: 12.5 µM (active); AC50 [26]: 3.54 µM (active); AC50 [27]: 3.1 µM (active); AC50 [28]: 43.4 µM (active); AC50 [13]: > 70 µM (inactive); AC50 [29]: 5.17 µM (active); AC50 [30]: 7.24 µM (active); AC50 [31]: 41.9 µM (active)

Question: With [N-]=[N+]=NCCOCCNC(=O)CCCOc1ccc(CSc2nnc(-c3ccc(Cl)cc3)o2)nc1 as the molecule, how does the IC90 [32] read?
Answer: 8 µM (active)

Question: What about the IC90 [33] of the same molecule?
Answer: 8 µM (active)

Question: What about the IC90 [34] of the same molecule?
Answer: 62 µM (active)
